# PubChem BioAssay (NCI)
#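 Tested at 5 concentrations; 48 h exposure; 96-well plates; endpoints linearly interpolated, else capped at highest concentration. GI50 is the concentration that inhibits growth by half. TGI: concentration producing complete growth inhibition.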 Where a SMILES comes first, the peptide text is derived from it. The star is where a group is joined. Fmoc = O=C(OCC1c2ccccc2-c2ccccc21)*; OBn = c1ccc(CO*)cc1; tBu = CC(C)(C)*
# Legend:
# Test in all cases: NCI-60 cell line screen, 48 h
# [1] = system: 786-0 renal
# [2] = system: A549 NSCLC
# [3] = system: HOP-92 NSCLC
# [4] = system: LOX IMVI melanoma
# [5] = system: MDA-MB-231 breast
# [6] = system: OVCAR-5 ovarian
# [7] = system: SF-268 CNS
# [8] = system: SK-MEL-28 melanoma
# [9] = system: SK-MEL-5 melanoma
# [10] = system: SW-620 colon
Compound,TGI [1],TGI [2],TGI [3],TGI [4],TGI [5],TGI [6],TGI [7],TGI [8],TGI [9],TGI [10],GI50 [4]
CCOC(=O)c1c(-c2ccc(Cl)cc2)c(C#N)c(=S)n(C2OC(COC(C)=O)C(OC(C)=O)C(OC(C)=O)C2OC(C)=O)c1C (stereo unspecified),> 100 µM,> 100 µM,> 20.1 µM,> 100 µM,> 100 µM,> 100 µM,> 100 µM,> 100 µM,> 100 µM,> 100 µM,
COC(=O)c1sc2c(Cl)c(Cl)sc2c1Cl,> 100 µM,> 100 µM,> 100 µM,> 100 µM,> 100 µM,> 100 µM,> 100 µM,> 100 µM,> 100 µM,> 100 µM,
O=c1ccc(=O)c2c1c1[nH]c3ccccc3c1c1c(=O)c3ccccc3c(=O)c21,> 10 µM,> 10 µM,> 10 µM,> 10 µM,> 10 µM,> 10 µM,> 10 µM,> 10 µM,> 10 µM,> 10 µM,
COc1cc2ccc(C(C)NCC#N)cc2cc1OC (stereo unspecified),> 100 µM,> 100 µM,> 100 µM,> 100 µM,> 100 µM,> 100 µM,> 100 µM,> 100 µM,> 100 µM,> 100 µM,
O=C(c1ccccc1)C1C(c2ccccc2[N+](=O)[O-])N1C1CCCCC1 (stereo unspecified),5.05 µM,44.2 µM,16.2 µM,5.18 µM,23 µM,36.9 µM,38.3 µM,> 57.7 µM,24.4 µM,> 26.6 µM,
COc1ccc(Nc2nc(N)c(C(=O)c3ccco3)s2)cc1,> 80.1 µM,> 100 µM,> 100 µM,> 100 µM,> 100 µM,> 100 µM,> 100 µM,> 100 µM,99.7 µM,> 100 µM,
c1csc(-c2cc(-c3ccsc3)cs2)c1,> 100 µM,> 100 µM,> 100 µM,> 100 µM,> 100 µM,> 100 µM,> 100 µM,> 100 µM,> 100 µM,> 100 µM,
CCOC(=O)C(NC(=O)c1ccccc1)(Nc1ccc(S(=O)(=O)Nc2cc(C)on2)cc1)C(F)(F)F (stereo unspecified),> 100 µM,> 100 µM,> 100 µM,> 100 µM,> 100 µM,> 100 µM,> 100 µM,> 100 µM,> 100 µM,> 100 µM,
CCOc1ccc(Nc2nc(N)nc(N)c2N=O)cc1,> 100 µM,> 100 µM,62.8 µM,> 100 µM,> 100 µM,> 100 µM,> 100 µM,> 100 µM,> 100 µM,> 100 µM,
O=c1c2ccccc2n2nnc3ccc(NCCNCCO)c1c32,11.5 µM,3.5 µM,6.18 µM,2.6 µM,8.18 µM,7 µM,6.46 µM,10.9 µM,4.37 µM,6.44 µM,
CN(Cc1ccccc1)C(=S)S,40.7 µM,> 100 µM,> 100 µM,> 100 µM,> 100 µM,> 100 µM,> 100 µM,> 100 µM,> 100 µM,> 100 µM,
COc1cc2c(cc1OC)C(C1CC1)ON(C)CC2 (stereo unspecified),> 100 µM,> 100 µM,> 100 µM,> 100 µM,> 100 µM,> 100 µM,> 100 µM,> 100 µM,> 100 µM,> 100 µM,
Cc1cc(C)n(C(C)(C(=O)Cc2ccccc2)n2nc(C)cc2C)n1,> 100 µM,> 100 µM,> 100 µM,> 100 µM,> 100 µM,> 100 µM,> 100 µM,> 100 µM,> 100 µM,> 100 µM,
COc1cc(/C=C2\C(=O)N(c3ccc(Cl)cc3)C(c3ccccc3)S2(=O)=O)cc(OC)c1OC (stereo unspecified),> 100 µM,> 100 µM,> 100 µM,> 100 µM,> 100 µM,> 100 µM,> 100 µM,> 100 µM,> 22 µM,> 100 µM,
CC1OC23CCCCC2C(C#N)(C#N)C1(C#N)C(=N)O3 (stereo unspecified),28.6 µM,> 100 µM,29.3 µM,40.2 µM,32.1 µM,52.6 µM,60.3 µM,56 µM,32.3 µM,98.3 µM,
CC1CC(C)(C)CC(OCCN2CCCCC2)(c2ccccc2)C1 (stereo unspecified),22.6 µM,24.6 µM,21.7 µM,21.3 µM,24.9 µM,18.2 µM,23.9 µM,29.7 µM,22.9 µM,32.5 µM,

Compound,TGI [1],TGI [2],TGI [3],TGI [4],TGI [5],TGI [6],TGI [7],TGI [8],TGI [9],TGI [10],GI50 [4]
CC(C)(C)[C@H]1NC(=O)CN1C(=O)OCc1ccccc1,> 100 µM,> 100 µM,31.9 µM,> 100 µM,> 100 µM,> 100 µM,> 100 µM,> 100 µM,> 100 µM,> 100 µM,
COc1ccc(/C=C2\N=C3N(Cc4ccccc4)C=C(N)N3C2=O)cc1,> 100 µM,> 100 µM,> 100 µM,> 100 µM,> 100 µM,> 100 µM,> 100 µM,> 100 µM,> 100 µM,> 100 µM,
Clc1ccc(C2=CC(c3ccccc3)N3C(=N[C@H]4CCCC[C@@H]43)N2)cc1 (stereo partly specified),10.9 µM,18.4 µM,17.2 µM,19.7 µM,22.1 µM,23.6 µM,25.2 µM,11 µM,3.35 µM,15.4 µM,
CN(C)c1ccc(/C=C2\N=C(c3ccccc3)N(c3nc4ccc(Sc5ccccc5)cc4[nH]3)C2=O)cc1,> 100 µM,> 100 µM,> 100 µM,> 100 µM,> 100 µM,> 100 µM,> 100 µM,> 100 µM,> 100 µM,> 100 µM,
COc1cc2c(cc1OCCN1CCN(CCOc3cc4c(cc3OC)C(=O)N3CCC[C@H]3C=N4)CC1)N=C[C@@H]1CCCN1C2=O,> 76.8 µM,> 100 µM,4.27 µM,> 100 µM,54.5 µM,63.7 µM,> 100 µM,> 100 µM,48.9 µM,> 100 µM,> 100 µM
N#Cc1nc(-c2ccsc2)oc1N,> 100 µM,> 100 µM,> 100 µM,> 100 µM,> 100 µM,> 100 µM,> 100 µM,> 100 µM,> 100 µM,> 100 µM,
CC(=O)CCN1CC2CN=NC2(C#N)C1 (stereo unspecified),> 100 µM,> 100 µM,> 76.3 µM,> 100 µM,> 100 µM,> 100 µM,> 100 µM,> 100 µM,> 100 µM,> 55.6 µM,
c1ccc(CN2CCC(CNc3ncnc4ccccc34)C2)cc1 (stereo unspecified),> 100 µM,> 100 µM,> 100 µM,> 100 µM,> 100 µM,> 100 µM,> 100 µM,85.8 µM,82 µM,> 100 µM,
C=C(C)C1CCC2(C)C1CCC1(C)C2CCC2C3(C)C4OC(OC4=O)C(C)(C)C3CCC21C (stereo unspecified),> 100 µM,> 100 µM,> 100 µM,> 100 µM,> 100 µM,> 100 µM,> 100 µM,> 100 µM,> 100 µM,> 100 µM,
CCOC(=O)/C=C(/OCC)[C@@H]1C(C(=O)c2ccc(Cl)cc2)[C@@H]1/C(=C\C(=O)OCC)OCC (stereo partly specified),> 100 µM,> 100 µM,17.9 µM,> 100 µM,> 100 µM,> 100 µM,> 100 µM,> 100 µM,> 59.9 µM,> 100 µM,
Fc1cccc(C2ON=C(c3ccccc3)N2C23CC4CC(CC(C4)C2)C3)c1 (stereo unspecified),> 10 µM,> 10 µM,> 10 µM,> 10 µM,> 10 µM,> 10 µM,> 10 µM,> 10 µM,> 10 µM,> 10 µM,
CN=C1C=C(/N=C2/C=C(N/C(=C\C#N)C(C)(C)O)OC2(C)C)OC1(C)C,> 100 µM,> 100 µM,> 71.5 µM,> 100 µM,> 100 µM,> 100 µM,> 100 µM,> 100 µM,> 85.7 µM,> 100 µM,
Clc1ccc(-c2nn3c(COc4ccc(OCc5nnc6sc(-c7ccc(Cl)cc7)nn56)c(Cl)c4)nnc3s2)cc1,26.6 µM,90.2 µM,37.8 µM,35.6 µM,> 100 µM,71.7 µM,35.6 µM,> 100 µM,80.2 µM,74.1 µM,
COc1cc(-c2cc(OC)c(OC)c3ccc(Br)cc23)c2cc(Br)ccc2c1OC,34.2 µM,45.2 µM,40.3 µM,46.6 µM,49.5 µM,39.2 µM,50.8 µM,45.7 µM,> 100 µM,> 100 µM,
CC(OC(C)(C)C)C(NC(=O)OCC1c2ccccc2-c2ccccc21)C(=O)NC(Cc1ccccc1)C(=O)OCc1ccccc1 (stereo unspecified) (Fmoc-Thr(tBu)-Phe-OBn; configuration not given here),> 100 µM,> 100 µM,> 100 µM,> 100 µM,> 100 µM,> 100 µM,> 100 µM,> 100 µM,> 100 µM,> 100 µM,
CC(C)(C)OC(=O)N1CCC2(CC1)C(=O)NCN2c1ccccc1,> 100 µM,> 100 µM,> 100 µM,> 100 µM,> 100 µM,> 100 µM,> 100 µM,> 100 µM,> 100 µM,> 100 µM,
